Data taken from PubChem BioAssay AID1919005 (Molecular Pharmacology Branch, DTP, NCI, 2023).
Several values for one entry are separate records, joined by “and”; a condition that tells them apart may be missing. Equal entries are not always repeated.

Test system: 855422-203-R-J1-PDC complex spheroid growth
Test: Anticancer human tumor 855422-203-R-J1-PDC patient-derived bladder carcinoma cell line growth inhibition [AhR]
Details: for viability, T/C: stronger effect = lower value
Excerpt: Multicellular complex tumor spheroid response to aryl hydrocarbon receptor antagonists in combination with a variety of drugs and investigational agents in selected tumor cell lines
The current study was undertaken to assess response to aryl hydrocarbon receptor antagonists in combination with standard-of-care drugs and investigational agents in solid tumor complex spheroid models. Complex spheroids include a stromal component modeled by human endothelial cells (HUVEC) and fibroblasts modeled by human mesenchymal stem cells (MSCs). The concentration ranges selected for each drug and investigational agent were based upon clinically achievable concentrations if the clinical Cmax of the agent was known.
Compounds. The drugs and investigational agents: BAY 2416964 (NSC825713), GNF351 (NSC835774), CH-223191 (NSC835775), CPI-455 (NSC825282), aza-TdCyd (NSC777586), decitabine (NSC127716), belinostat (NSC758774), entinostat (NSC756642), pevonedistat (NSC761192), tazemetostat (NSC777109), talazoparib (NSC765396), olaparib (NSC753686), selinexor (NSC780203), nedisertib (M3814, NSC802822), bortezomib (NSC756655), venetoclax (NSC766270), doxorubicin (NSC123127), elimusertib (BAY189344, NSC800525), ceralasertib (AZD6738, NSC777638), TAK-243 (NSC785004), alisertib (NSC759677), etoposide (NSC141540), topotecan (NSC609699), eribulin (NSC707389), gemcitabine (NSC613327), carboplatin (NSC241240), cisplatin (NSC119875), and SN-38 (NSC673596) were obtained from the National Cancer Institute (NCI) Developmental Therapeutics Program Chemical Repository (32). The FDA-approved anticancer drug set is available from the Developmental Therapeutics Program at https://dtp.cancer.gov/organization/dscb/obtaining/available plates.htm. […] The stock solutions were prepared in dimethyl sulfoxide (DMSO, Sigma-Aldrich, St. Louis, MO, cat. D2650), except for the platinum compounds which were prepared in saline (Quality Biological, Gaithersburg, MD, cat. 114-055-101), at 800-fold the tested concentration and stored at -70 degrees C prior to their use. All drugs and investigational agents were tested over a range starting from a high concentration at or near the clinical Cmax and decreasing in half-log increments. If the clinical Cmax for an agent had not been determined, the highest concentration tested was 10 microM (Table 1).
Cell Culture. All cells were maintained in an incubator at 37 degrees C and 5% CO2 with 95% humidity. The PDC lines were cultured according to standard operating procedures established by the NCI PDMR (https://pdmr.cancer.gov). Briefly, all PDCs were thawed and cultured in Matrigel-coated flasks prepared with a working solution of 1X Ham's F-12 nutrient mix, without supplementation (Invitrogen, Waltham, MA, cat. 11765054), 100 U/mL penicillin-streptomycin (Invitrogen, cat. 15140122), and 2.5% Matrigel (Corning Inc., Corning, NY, cat. 354248) for the first three passages. All PDCs were cultured in complete DMEM/F-12 media containing advanced DMEM/F-12 (Invitrogen, cat. 12634028), 4.9% defined fetal bovine serum, heat inactivated (HyClone Laboratories Inc., Logan, UT, cat. SH30070.03HI), 389 ng/mL hydrocortisone (Sigma-Aldrich, cat. H4001), 9.7 ng/mL human EGF recombinant protein (Invitrogen, cat. PHG0313), 23.4 microg/mL adenine (Sigma-Aldrich, cat. A2786), 97.3 U/mL penicillin-streptomycin (Invitrogen, cat. 15140122), 1.9 mM L-glutamine (Invitrogen, cat. 25030081), and 9.7 microM Y-27632 dihydrochloride (Tocris Bioscience, Bristol, United Kingdom, cat. 1254). The PDCs were cultured in complete DMEM/F12 media without 10 microM Y-27632 dihydrochloride for at least two passages prior to the screen. The established cell lines NCI-H1341 and […] were cultured in DMEM/F-12, HEPES (Invitrogen, cat. 11330032), 5% defined fetal bovine serum (HyClone Laboratories Inc., cat. SH30070.03), ITS premix universal culture supplement [insulin (5 microg/mL), transferrin (5 microg/mL), and selenious acid (5 ng/mL)] […]

[1] = curve of first compound, second compound 0.1 µM
[2] = curve of first compound, second compound 0.316 µM
[3] = curve of first compound, second compound 1 µM
[4] = curve of first compound, second compound 3.16 µM
[5] = curve of first compound, second compound 10 µM
[6] = second compound 0.1 µM, first compound 0.0316 µM
[7] = second compound 0.1 µM, first compound 0.1 µM
[8] = second compound 0.1 µM, first compound 0.316 µM
[9] = second compound 0.1 µM, first compound 1 µM
[10] = second compound 0.1 µM, first compound 3.16 µM
[11] = second compound 0.1 µM, first compound 10 µM
[12] = second compound 0.316 µM, first compound 0.0316 µM
[13] = second compound 0.316 µM, first compound 0.1 µM
[14] = second compound 0.316 µM, first compound 0.316 µM
[15] = second compound 0.316 µM, first compound 1 µM
[16] = second compound 0.316 µM, first compound 3.16 µM
[17] = second compound 0.316 µM, first compound 10 µM
[18] = second compound 1 µM, first compound 0.0316 µM
[19] = second compound 1 µM, first compound 0.1 µM
[20] = second compound 1 µM, first compound 0.316 µM
[21] = second compound 1 µM, first compound 1 µM
[22] = second compound 1 µM, first compound 3.16 µM
[23] = second compound 1 µM, first compound 10 µM
[24] = second compound 3.16 µM, first compound 0.0316 µM
[25] = second compound 3.16 µM, first compound 0.1 µM
[26] = second compound 3.16 µM, first compound 0.316 µM
[27] = second compound 3.16 µM, first compound 1 µM
[28] = second compound 3.16 µM, first compound 3.16 µM
[29] = second compound 3.16 µM, first compound 10 µM
[30] = second compound 10 µM, first compound 0.0316 µM
[31] = second compound 10 µM, first compound 0.1 µM
[32] = second compound 10 µM, first compound 0.316 µM
[33] = second compound 10 µM, first compound 1 µM
[34] = second compound 10 µM, first compound 3.16 µM
[35] = second compound 10 µM, first compound 10 µM
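Also: spheroids exposed to agents for seven days before readout.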
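For viability, T/C in this document: percent of DMSO vehicle control luminescence viability.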

Row | Structure (SMILES) | IC50 [1] | IC50 [2] | IC50 [3] | IC50 [4] | IC50 [5] | viability, T/C [6] | viability, T/C [7] | viability, T/C [8] | viability, T/C [9] | viability, T/C [10] | viability, T/C [11] | viability, T/C [12] | viability, T/C [13] | viability, T/C [14] | viability, T/C [15] | viability, T/C [16] | viability, T/C [17] | viability, T/C [18] | viability, T/C [19] | viability, T/C [20] | further results
1 | Nc1ccn(C2OC(CO)C(O)C2(F)F)c(=O)n1 (centres undefined) + Cc1ccccc1N=Nc1ccc(NC(=O)c2ccnn2C)c(C)c1 | 265 nM | 293 nM | 248 nM | 167 nM | 73.1 nM | 120% | 96.4% | 40.4% | 29.2% | 25.9% | 16.5% | 113% | 89.3% | 46.5% | 28.2% | 23.4% | 20.7% | 109% | 84.5% | 39.2% | viability, T/C [21]: 30.1%; viability, T/C [22]: 23.8%; viability, T/C [23]: 19.1%; viability, T/C [24]: 84.5%; viability, T/C [25]: 63.3%; viability, T/C [26]: 31.9%; viability, T/C [27]: 29.6%; viability, T/C [28]: 22.3%; viability, T/C [29]: 17.1%; viability, T/C [30]: 64%; viability, T/C [31]: 45.8%; viability, T/C [32]: 29.6%; viability, T/C [33]: 27.7%; viability, T/C [34]: 22.1%; viability, T/C [35]: 18%
2 | COc1ccc([C@@H](O)c2cc(-c3ncnc4cc(N5CCOCC5)ccc34)c(F)cc2Cl)nn1 + Cc1cncc(-c2nc(NCCc3c[nH]c4ccccc34)c3ncn(C(C)C)c3n2)c1 | > 10000 nM | 9440 nM | 6090 nM | 2410 nM | < 31.6 nM | 101% | 90.6% | 93.7% | 83.8% | 76.7% | 50.9% | 97.1% | 88.6% | 77.2% | 86.8% | 74.5% | 47.8% | 90.5% | 94.6% | 79.9% | viability, T/C [21]: 74.5%; viability, T/C [22]: 69.1%; viability, T/C [23]: 37.6%; viability, T/C [24]: 79.5%; viability, T/C [25]: 85.6%; viability, T/C [26]: 67.2%; viability, T/C [27]: 54.7%; viability, T/C [28]: 52.6%; viability, T/C [29]: 27.9%; viability, T/C [30]: 6.06%; viability, T/C [31]: 3.37%; viability, T/C [32]: 1.79%; viability, T/C [33]: 0.4%; viability, T/C [34]: 6.5%; viability, T/C [35]: 9.38%
3 | Cn1ncnc1C1c2n[nH]c(=O)c3cc(F)cc(c23)NC1c1ccc(F)cc1 (centres undefined) | – | – | – | – | – | – | – | – | – | – | – | – | – | – | – | – | – | – | – | – | viability, T/C (compound 0.000316 µM): 98.3% and 105% and 99%; viability, T/C (compound 0.001 µM): 92.9% and 104% and 110%; viability, T/C (compound 0.00316 µM): 86.6% and 106% and 105%; viability, T/C (compound 0.01 µM): 104% and 98.8% and 103%; viability, T/C (compound 0.0316 µM): 99.4% and 102% and 95.6%; viability, T/C (compound 0.1 µM): 82.4% and 101% and 98.5%; IC50 (curve of compound): > 100 nM
4 | Nc1ncn(C2CC(O)C(CO)O2)c(=O)n1 (centres undefined) | – | – | – | – | – | – | – | – | – | – | – | – | – | – | – | – | – | – | – | – | viability, T/C (compound 0.00316 µM): 94.3% and 107% and 95.8%; viability, T/C (compound 0.01 µM): 96.5% and 98.7% and 94.9%; viability, T/C (compound 0.0316 µM): 91.6% and 97.8% and 87.2%; viability, T/C (compound 0.1 µM): 87.2% and 88.3% and 87.7%; viability, T/C (compound 0.316 µM): 86.9% and 90.8% and 79.8%; viability, T/C (compound 1 µM): 83.3% and 83.5% and 78.8%; IC50 (curve of compound): > 1000 nM
5 | COc1ccc([C@@H](O)c2cc(-c3ncnc4cc(N5CCOCC5)ccc34)c(F)cc2Cl)nn1 + CC(CO)NC(=O)c1cc(-c2ccc(Cl)cc2)nn(-c2cnn(C)c2)c1=O | > 10000 nM | > 10000 nM | > 10000 nM | > 10000 nM | > 10000 nM | 94.1% | 85.3% | 84.8% | 86.3% | 74.7% | 58.4% | 96.4% | 96.6% | 86% | 74.5% | 74.6% | 54.6% | 85.3% | 90.6% | 92.3% | viability, T/C [21]: 86.9%; viability, T/C [22]: 72.7%; viability, T/C [23]: 55.4%; viability, T/C [24]: 91.5%; viability, T/C [25]: 88.5%; viability, T/C [26]: 98.9%; viability, T/C [27]: 78.5%; viability, T/C [28]: 69.6%; viability, T/C [29]: 54%; viability, T/C [30]: 93.5%; viability, T/C [31]: 103%; viability, T/C [32]: 82%; viability, T/C [33]: 84.2%; viability, T/C [34]: 71%; viability, T/C [35]: 54.4%
6 | NS(=O)(=O)OCC1CC(n2ccc3c(NC4CCc5ccccc54)ncnc32)CC1O (centres undefined) + CC(CO)NC(=O)c1cc(-c2ccc(Cl)cc2)nn(-c2cnn(C)c2)c1=O | 855 nM | 795 nM | 699 nM | 524 nM | 470 nM | 99.8% | 117% | 93% | 43.2% | 15.3% | 10.1% | 90.5% | 109% | 84.4% | 41.5% | 12.4% | 7.98% | 104% | 102% | 85.4% | viability, T/C [21]: 34.1%; viability, T/C [22]: 11.4%; viability, T/C [23]: 9.77%; viability, T/C [24]: 87%; viability, T/C [25]: 97.9%; viability, T/C [26]: 61.9%; viability, T/C [27]: 31.9%; viability, T/C [28]: 9.85%; viability, T/C [29]: 8.37%; viability, T/C [30]: 87.6%; viability, T/C [31]: 82.8%; viability, T/C [32]: 53.5%; viability, T/C [33]: 38.6%; viability, T/C [34]: 11.7%; viability, T/C [35]: 8.14%
